{"source": "paper PMC10724246", "about": "(Nature Communications, 2023)", "key": {"WD40": {"tested_on": "WD40", "settings": "peer review response; ref Dey et al Communications Biology 2022; cited from earlier work", "text": "page 26: dynamics/conformations of the tail. I see no need to perform experiments, but maybe this has been done (or other mutants been tested meanwhile)? Please comment at least! Response 3.21: We thank the reviewer for raising this point. We reported this BLI experiment in our previous publication, Dey et al Communications Biology 2022. […]"}, "yeast αWD40 domain": {"biological_target": "yeast αWD40 domain", "settings": "published value, Supplementary Table S6; ref Ma & Goldberg, EMBO J 2013; cited from earlier work"}, "yeast β'WD40 domain": {"biological_target": "yeast β'WD40 domain", "settings": "published value, Supplementary Table S6; ref Ma & Goldberg, EMBO J 2013; cited from earlier work"}, "αWD40 domain (α-COPI)": {"biological_target": "T1, αWD40 domain (α-COPI) (Schizosaccharomyces pombe, UniProt Q96WV5)", "T1 construct": "strep-tag (C); made in house; host or cells: Expi293 cells", "T1 sequence (Q96WV5 1-327 limits assumed)": "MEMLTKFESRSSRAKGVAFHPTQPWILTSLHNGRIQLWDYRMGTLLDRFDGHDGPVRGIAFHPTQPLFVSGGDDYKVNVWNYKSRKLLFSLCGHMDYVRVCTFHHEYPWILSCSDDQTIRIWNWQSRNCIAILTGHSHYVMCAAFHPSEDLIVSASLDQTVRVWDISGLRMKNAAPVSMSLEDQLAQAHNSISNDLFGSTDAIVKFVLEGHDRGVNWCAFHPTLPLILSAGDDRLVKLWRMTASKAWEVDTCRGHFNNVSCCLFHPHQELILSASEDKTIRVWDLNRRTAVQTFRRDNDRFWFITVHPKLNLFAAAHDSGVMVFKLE", "test": "Biolayer interferometry (BLI) of S tail peptides with wild-type αWD40", "type": "binding, S. pombe", "protocol": "Recombinant expression and purification of S. pombe αWD40 and S. cerevisiae β‘WD40 domains (both wild type and mutants) were carried out as described[43],[72],[75]. Briefly, αWD40 with a C-terminal strep-tag was expressed and purified from Expi293 cells using polyethyleneimine (PEI). The clarified cell lysate was subjected to affinity chromatography followed by size-exclusion chromatography (SEC) on a preparative grade Superdex-75 column.\nBLI assays with biotinylated S peptides from Biomatik (USA) and purified coatomer WD40 domains were carried out as described. […] S peptides were immobilized on streptavidin (SA) biosensors (FortéBio, USA). Measurements were performed on the Octet RED96 system (FortéBio, USA). Data acquisition and data analysis were performed using Data Acquisition 11.1 suite and FortéBio Data Analysis 11.1 software suite respectively. All experiments were performed at 25 °C and 1000 rpm shake speed. Appropriate sensor and loading controls were applied."}, "[1]": {"biological_target": "T2, alpha-COP WD40 (Schizosaccharomyces pombe), Q96WV5", "T2 chain": "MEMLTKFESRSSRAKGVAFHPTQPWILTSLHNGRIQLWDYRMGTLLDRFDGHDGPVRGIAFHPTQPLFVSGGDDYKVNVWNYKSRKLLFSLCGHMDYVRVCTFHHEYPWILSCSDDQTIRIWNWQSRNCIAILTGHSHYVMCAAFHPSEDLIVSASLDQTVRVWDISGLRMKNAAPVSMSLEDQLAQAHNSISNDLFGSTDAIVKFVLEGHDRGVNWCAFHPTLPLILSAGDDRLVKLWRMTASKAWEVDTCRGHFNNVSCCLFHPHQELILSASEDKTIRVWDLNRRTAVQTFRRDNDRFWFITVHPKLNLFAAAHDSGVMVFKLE", "settings": "modification not given"}, "[2]": {"settings": "immobilized biotinylated peptide, αWD40 analyte, pH 6.5, 25 °C"}, "[3]": {"settings": "immobilized biotinylated peptide, αWD40 analyte, pH 7.0, 25 °C"}}, "note": "No end group written: not given here."}
{"molecule": "GVKLHYA", "values": [{"measurement": "WD40 binding in BLI assays (in words)", "setting": "WD40", "result": "modest enhancement"}]}
{"molecule": "R-R-S-F-I-D-E-K-K-M-P (RRSFIDEKKMP)", "values": [{"measurement": "Kd", "setting": "yeast αWD40 domain", "result": "64.5 ± 5.4", "unit": "µM"}, {"measurement": "Kd", "setting": "yeast β'WD40 domain", "result": "49 ± 2.2", "unit": "µM"}]}
{"molecule": "CC(C)C[C@H](NC(=O)[C@H](CCCCN)NC(=O)[C@@H](NC(=O)CNC(=O)[C@H](CCCCN)NC(=O)[C@H](CC(C)C)NC(=O)[C@@H](NC(=O)[C@@H]1CCCN1C(=O)[C@H](CCC(=O)O)NC(=O)[C@H](CO)NC(=O)[C@H](CC(=O)O)NC(=O)[C@H](CC(=O)O)NC(=O)[C@H](CCC(=O)O)NC(=O)[C@H](CC(=O)O)NC(=O)[C@H](Cc1ccccc1)NC(=O)[C@H](CCCCN)NC(=O)[C@H](CS)NC(=O)[C@H](CS)NC(=O)CCCC[C@@H]1SC[C@@H]2NC(=O)N[C@@H]21)C(C)C)C(C)C)C(=O)N[C@@H](Cc1c[nH]cn1)C(=O)N[C@@H](Cc1ccc(O)cc1)C(=O)N[C@@H](CCC(=O)O)C(=O)O", "values": [{"measurement": "Kd", "setting": "αWD40 domain (α-COPI); Equilibrium KD, immobilized biotinylated peptide, αWD40 analyte, pH 7.0, 25 °C", "result": "0.1 ± 0.002", "unit": "µM"}, {"measurement": "koff", "setting": "αWD40 domain (α-COPI); [2]", "result": "0.0037 ± 0.0002", "unit": "s⁻¹"}, {"measurement": "kon", "setting": "αWD40 domain (α-COPI); [2]", "result": "59.9 ± 1.3 10^3/Ms"}, {"measurement": "koff", "setting": "αWD40 domain (α-COPI); [3]", "result": "0.003 ± 0.0002", "unit": "s⁻¹"}, {"measurement": "kon", "setting": "αWD40 domain (α-COPI); [3]", "result": "60.8 ± 1.3 10^3/Ms"}]}
{"molecule": "GVKLHYT (amidated)", "values": [{"measurement": "binding to αWD40 (in words)", "setting": "αWD40 domain (α-COPI); Fig. 2M, listed as amidated wild-type S heptapeptide", "result": "Loss of αWD40 binding"}]}
{"molecule": "GVKLHYE-NH2 [GVKLHYE (amidated)]", "values": [{"measurement": "koff", "setting": "αWD40 domain (α-COPI); [2]", "result": "0.88 ± 0.02", "unit": "s⁻¹"}, {"measurement": "kon", "setting": "αWD40 domain (α-COPI); [2]", "result": "706.2 ± 56.3 10^3/Ms"}]}
{"molecule": "GVKLHYT", "note": "[Spike tail heptapeptide]", "values": [{"measurement": "Kd", "setting": "[1]", "result": 1.4, "unit": "µM"}]}
